The values below come from US20220348543A1, “SALTS OF OMECAMTIV MECARBIL AND SOLID FORMS THEREOF” (SYNTHON B.V., priority 2019, published 2022).

Data set [1] can be described thus: Stability at 25° C. of the solid isolated from salt crystallisation. As to conditions: crystallised from 2-butanone. It counts as physicochemical. On the procedure: The preparation of Omecamtiv mecarbil methane sulfonic acid salt was tested also in following solvent: methanol, ethanol, isopropanol, 1-butanol, acetone and tetrahydrofurane. Solid obtainable from these solvents was not stable and it melted at a temperature 25° C. […] The solid Form M can be therefore used for purification of Omecamtiv mecarbil. The salt can be transformed into Omecamtiv mecarbil by contacting with a base (for example sodium hydrogen carbonate or potassium hydrogen carbonate or sodium carbonate or potassium carbonate or sodium hydroxide or potassium hydroxide) in a suitable solvent (for example an alcohol or acetone).
250 mg of Omecamtiv mecarbil was dissolved in a solvent (in Table below) at a temperature (in Table below). 40 μl methane sulfonic acid (1 eq. w.r.t. Omecamtiv mecarbil) was added. The mixture was cooled to 25° C. and stirred for 16 hours. If no solid appeared, mixture was then stirred at −15° C. Solid mass was filtered off and dried. The ratio between Omecamtiv mecarbil and the salt was determined by NMR as 1:2 (i.e. dimethane sulfonate salt).

Data set [2] in a line: Solubility of Omecamtiv mecarbil salts in water solution (aqueous buffer) at different pH. As to conditions: USP / Ph. Eur. descriptive terms, read-out: Category of solubility (Descriptive Term). It counts as physicochemical. Here is the method:
The solubility of prepared salts was tested in water solution at different pH (1.2, 4.5 and 6.8) and compared to Omecamtiv mecarbil dihydrochloride monohydrate salt prepared according to a procedure disclosed in WO2006009726 application.
It can be concluded that solubility of all prepared salt is better that the solubility of dihydrochloride monohydrate salt.

Counter-ions that a name gives are not always drawn. Like-named read-outs stand apart in the source and are kept apart here. A value given as a limit tells only on which side of the number the result lay.

`COC(=O)N1CCN(Cc2cccc(NC(=O)Nc3ccc(C)nc3)c2F)CC1` [Salt with methane sulfonic acid, Form M, Omecamtiv mecarbil methane sulfonic acid salt]: in data set [1], the “stability of the crystalline solid” value was “form M, stable at 25° C.,”.

As to `COC(=O)N1CCN(Cc2cccc(NC(=O)Nc3ccc(C)nc3)c2F)CC1` [Omecamtiv mecarbil p-toluene sulfonic acid salt], the solubility (commonly how much of the substance goes into solution per volume) in data set [2] (aqueous buffer pH 4.5) is at least 1000 mg/mL; in data set [2] (aqueous buffer pH 6.8) it was at least 1000 mg/mL; in data set [2] (simulated gastric fluid, aqueous buffer pH 1.2), at least 1000 mg/mL.
